Results on 87 compounds are retold here after a melting point compilation (Tetko et al.; mined from patent text by program, amines drawn as free bases though some values may be those of a salt).

Bounds are passed on as bounds.

The term melting point denotes the temperature, or range, at which the solid turns liquid. As to `CCOc1c(C(N)=O)cnc2c(NC(=O)c3c(Cl)cccc3Cl)cccc12`, the melting point fell in the range of 242 to 245 °C.

On to `C1=C(c2ccc3[nH]ccc3c2)CCN(Cc2c[nH]c3ncccc23)C1`, for which the melting point was 187 to 189 °C.

In turn, `COc1cc(OC)c2c(=O)[nH]c(-c3cc(C)c(OCCN4CCN(C)CC4)c(C)c3)cc2c1` showed a melting point of 195 to 198 °C.

As for `CC1(C)Oc2ccc(OCc3nc4cc(F)c(F)cc4s3)cc2[C@H](O)[C@@H]1c1cccc(NS(=O)(=O)C(F)(F)F)c1`, the melting point is 191 to 193 °C.

In turn, `Oc1ccc2nc(-c3ccc(O)c(F)c3)cc(-c3ccc(F)cc3)c2c1` yielded a melting point of 240 to 243 °C.

`Cc1ccc(COc2ccccc2C=C2CCCCC2N2CCC2)cc1` (configuration not stated) had a melting point of 88 to 90 °C.

`COCc1c2c(c(COC)n1-c1ccccc1)C(C)(C(N)=O)CC2(C)C` (configuration not stated): the melting point lay in the range of 168 to 170 °C.

For the compound `CSc1nnc(C(N)(c2ccc(Cl)cc2)c2ccc3c(c2)c(-c2cccc(Cl)c2)nc2nnnn23)n1C` (configuration not stated), the melting point turned out to be 150 °C.

`Cc1ccc(-c2cc(=S)ss2)nn1` showed a melting point of 242 °C.

`COc1cccc(OC)c1C(=O)P(CC(C)C)C(=O)c1c(OC)cccc1OC` had a melting point of 138 to 140 °C.

`COCCCNc1ccc([N+](=O)[O-])cc1C` gave a melting point of 26 to 28 °C.

In turn, `Cc1c(F)c(N2CCC(N)C2)c(F)c2c1c(=O)c(C(=O)O)cn2-c1ccc(F)cc1F` (configuration not stated) came in with a melting point of 230 to 232 °C.

In the case of `CCn1c(=O)c2nc(-c3ccc(/C=C/C(=O)O)cc3)[nH]c2n(CC)c1=O`, the melting point is more than 360 °C.

Regarding `CC(C)(C)OC(=O)[C@H]1C[C@H](C(=O)O)[C@@H](c2ccccc2)N1C(=O)CNC(=O)Nc1ccc(Cl)cc1` (racemic), the melting point turned out to be 248 °C.

`Cc1ccc2nc(CCl)nc(Cl)c2c1` returned a melting point of 111 to 112 °C.

`CC(=O)c1c(-c2cccc([N+](=O)[O-])c2)cc(C(=O)NCCN2CCOCC2)nc1C`: the melting point lay in the range of 107 to 110 °C.

`O=C(O)c1ccc(-c2cccc(C(=O)O)c2)cc1` had a melting point of more than 250 °C.

In turn, `COc1ccc(CSc2cccc(N)c2)cc1` came in with a melting point of 85 to 86 °C.

As for `COc1ccc(C=Cn2ncc3ccccc3c2=O)cc1`, the melting point lay in the range of 267 to 269 °C.

`C=CCc1cc(C(N)=NO)ccc1O` gave a melting point of 144 °C.

Turning to `CCC(=O)N1CCC(NC(=O)Nc2ccc(C(F)(F)F)cc2)CC1`, the melting point lay within 224 to 228 °C.

`Cc1ccc(S(=O)(=O)N2C(C)CN3C(=O)c4ccccc4C32c2ccc(F)cc2)cc1` (configuration not stated) returned a melting point of 215 to 217 °C.

Compound `CCCCCC(O)C1C(=O)NC(C(=O)SCCNC(C)=O)(C(O)C2C=CCCC2)C1(C)O` (configuration not stated) yielded a melting point of 80 °C.

`CC(C)(O)C(=O)Nc1nc(-c2ccco2)c(C(=O)c2ccccc2)s1` showed a melting point of 153 to 154 °C.

Turning to `O=Cc1ccc(-c2ccccc2)cc1Cl`, the melting point is 90 to 91 °C.

Consider `C[C@@H]1CC[C@@H](C(C)(C)c2ccccc2)[C@@H](Oc2cn(C(c3ccccc3)c3ccccc3)c(=O)o2)C1`, for which the melting point lay in the range of 118 to 120 °C.

Consider `Cc1nn(C)c2c(=O)n(C)c(C)nc12`, for which the melting point lay in the range of 190 to 192 °C.

The compound `COc1cc2ncnc(N3CCc4ccccc43)c2cc1OC` gave a melting point of 162 to 163 °C.

For the compound `C=CCn1cc(-c2ccccc2)c(=O)c(-c2ccccc2)c1`, the melting point amounted to 174 °C.

Turning to `CC1(C)COc2ccc(C[C@H]3NC(=O)O[C@H]3c3cccc(Cl)c3)cc21` (racemic), the melting point lay within 183 to 184 °C.

The compound `CN1CCC(C2Cc3ccccc3C(=O)N2)CC1` (configuration not stated) showed a melting point of 139 to 141 °C.

In turn, `Cc1cccc2c1N(CC(=O)C1CC1)C(=O)C(NC(=O)Nc1cccc(-c3nnn[nH]3)c1)N=C2C1CCCCC1` (configuration not stated) displayed a melting point of 227 to 233 °C.

Consider `O=C(c1ccccc1)c1c[nH]c2ncnc(Nc3cccc(CCO)c3)c12`, for which the melting point was more than 300 °C.

In turn, `CC(=O)OCCOC(=O)C1=C(C)Nc2nc(N3CCOCC3)nc(N3CCOCC3)c2C1c1cccnc1` (configuration not stated) had a melting point of 170 °C.

In turn, `CCCCOC(=O)n1ccc(NC(=O)Nc2cccc3c2C2CCCCN2C3=O)n1` (configuration not stated) displayed a melting point of 136 °C.

In turn, `COc1ccc(/C(=C/C(=O)N2CCN(C(=O)c3cc(OC)c(OC(C)=O)c(OC)c3)CC2)c2ccccc2Cl)cc1` yielded a melting point of 191 to 194 °C.

In turn, `O=C1CSc2ccc3ccccc3c2N1` registered a melting point of 195 to 196 °C.

For the compound `COc1ccc(NC(=O)C(C#N)C(=O)c2cccn2C)cc1` (configuration not stated), the melting point was in the range of 192 to 193 °C.

The compound `COc1nnc(-c2cc3c([nH]c2=O)CCN(Cc2ccccc2)C3)o1` came in with a melting point of 176 to 178 °C.

With `O=[N+]([O-])c1cccc(-c2nc(Nc3cccc(Cl)c3)c3cc[nH]c3n2)c1`, the melting point is more than 250 °C.

The compound `CC(C)(C)OC(=O)NCCc1ccc(O)cc1` had a melting point of 61 to 62 °C.

With `O=C(NCCOc1ccc(CC(OCc2ccccc2)C(=O)O)cc1)c1ccc(-c2ccccn2)cc1` (configuration not stated), the melting point was in the range of 138 to 139 °C.

`CSCC(C)(C)C(=O)N(C)c1cnc(-c2cncc(F)c2)s1` had a melting point of 98 to 102 °C.

In the case of `CCOc1nn(C(=O)NS(=O)(=O)c2c(Cl)cccc2SC)c(=O)n1C`, the melting point was found to be 144 °C.

The compound `COC1=CC(=O)C(O)=C(CCCCCCCC2OC2CCCCCCCC2=C(O)C(=O)C=C(OC)C2=O)C1=O` (configuration not stated) gave a melting point of 134 to 136 °C.

For the compound `CCCc1c(OCCCOc2cc(OCC(=O)OC)ccc2C(C)=O)ccc(C(C)=O)c1O`, the melting point lay in the range of 103 to 106 °C.

As for `CCCCCCCCCCCCCCCCCCOc1cc(OCCCCC(=O)O)cc(N(CC(=O)O)CC(=O)O)c1`, the melting point lay in the range of 126 to 128 °C.

For `NC(=O)c1cc2cc(N3CCN(Cc4ccccc4)CC3)ccc2o1`, the melting point fell in the range of 206 to 208 °C.

In turn, `Cc1ccc2c(c1)C(=O)c1cccn1-2` yielded a melting point of 85 °C.

Take `COC(=O)c1ccc2c(c(C)nn2C)c1C1=NC(C)(C(C)C)C(=O)N1` (configuration not stated): the melting point was in the range of 130 to 150 °C.

`CNC(=O)c1ccccc1Nc1nc(Nc2cc3c(cc2OC)N(C)C(=O)OCC3)ncc1C(F)(F)F` yielded a melting point of 210 to 212 °C.

Consider `CC12C=CC(O)CC1=CCC1C2CCC2(C)C(=O)CCC12` (configuration not stated), for which the melting point lay in the range of 138 to 140 °C.

In turn, `NC(=O)c1ccc(NC2CCCN(Cc3ccccc3)C2)cc1` (configuration not stated) gave a melting point of 158 to 160 °C.

Consider `C[C@@H](n1cnc2cccc(Cl)c2c1=O)[C@](O)(Cn1cncn1)c1ccc(F)cc1F`, for which the melting point lay in the range of 114 to 119 °C.

Take `CCC(C(OC)OC)N(C1CCCCC1)C1CCCCC1` (configuration not stated): the melting point is 73.5 to 74.2 °C.

In turn, `CCCC1=C(C(=O)OCC)C(c2ccccc2Cl)c2cn(C(=O)c3ccccc3)nc2N1` (configuration not stated) returned a melting point of 119 to 121 °C.

In turn, `CCCCc1ccc(-c2ncc(C#N)c(Cl)n2)cc1` registered a melting point of 107 °C.

In turn, `O=C(O)c1c(F)c(F)cc([N+](=O)[O-])c1F` had a melting point of 98 to 99 °C.

For the compound `COC(=O)c1ccc(Oc2cc(-n3nc(C)n(C(F)F)c3=O)c(F)cc2Cl)cc1`, the melting point lay within 97 to 98 °C.

For `CN1CC(C(=O)CO)CC2c3cccc4[nH]cc(c34)CC21` (configuration not stated), the melting point was in the range of 202 to 203 °C.

Compound `CC(C)(C)N(NC(=O)c1ccccc1)C(=O)c1cccs1` gave a melting point of more than 200 °C.

`OCCC(O)OCn1cc(Br)c2c(Cl)ncnc21` (configuration not stated) yielded a melting point of 152 °C.

`NS(=O)(=O)c1nc2ccc(OC(=O)Cc3ccc(Cl)cc3)cc2s1`: the melting point is 206 to 208 °C.

As for `COc1ccc(S(=O)(=O)N(CCC(F)(F)C(F)F)c2ccccc2/C=C/c2ccncc2)cc1`, the melting point was in the range of 124 to 126 °C.

Take `COc1cc(Cl)cc(COc2cccc(OCc3ccc4ccccc4n3)c2)c1OCC(=O)O`: the melting point was in the range of 185 to 190 °C.

For `Cc1cc(C(=O)N2Cc3ccc(C(=O)N4CCN(C)CC4)n3Cc3ccccc32)ccc1C1=CCCc2ccccc21`, the melting point worked out at 108 °C.

Compound `CC(C)(C)c1ccc(CCC(O)CCC2CCCCC2)cc1NC(=O)CC1c2ccccc2Oc2ccccc21` (configuration not stated) gave a melting point of 136 to 137 °C.

The compound `Cc1sc(N)c(C(=O)c2ccsc2)c1C` gave a melting point of 122 to 123 °C.

Regarding `COc1cc(/C=C/CO)ccc1OCc1csc(-c2ccccc2)n1`, the melting point was 71 to 72 °C.

On to `CC(C)OC(=O)Nc1cccc(-c2ccnc3c(C(=O)c4ccsc4)cnn23)c1`, for which the melting point is 122 to 124 °C.

As for `CCCCN(CCCC)c1ccc2c(c1)O/C(=C1/Oc3cc(N(CCCC)CCCC)ccc3C1=O)C2=O`, the melting point turned out to be 216 °C.

Take `O=c1[nH]c2ccc(-c3cccc([N+](=O)[O-])c3)cc2s1`: the melting point fell in the range of 276 to 277 °C.

As for `CC(C)(C)C(NC(=O)c1ccc(I)cc1)NC(=NC#N)Nc1cccnc1` (configuration not stated), the melting point was in the range of 180 to 183 °C.

Turning to `Cc1ccc2c(c1)C(O)(C1=CCN(C)CC1)CC2c1ccc(F)cc1` (configuration not stated), the melting point lay in the range of 176 to 178 °C.

`O=C(CBr)c1ccc(OC2CCCCO2)cc1` (racemic) yielded a melting point of 102 to 104 °C.

For `NC(CSCc1ccccc1C(=O)O)C(=O)O` (configuration not stated), the melting point is 252 to 254 °C.

`CN(C)C(=O)C(C)(C)c1cc(C#N)ccc1O` had a melting point of 146 to 148 °C.

With `COc1cccc2[nH]cc(/C(C#N)=C/c3cccnc3)c12`, the melting point was determined as 177 °C.

In turn, `CSc1nn(C)c2ccccc2c1=O` gave a melting point of 173 to 175 °C.

In the case of `COc1ccc(C(=NO)c2ccc(OC)cc2)cc1`, the melting point is 131 to 132 °C.

Compound `Cn1c(C(F)(F)F)cc(=O)n(-c2ccc3snc(C(C)(C)C(=O)O)c3c2)c1=O` had a melting point of 155 to 156 °C.

The compound `O=C(NC1CCN(C2CCCCC2)C1)c1cccc2ccccc12` (configuration not stated) showed a melting point of 119 to 120 °C.

For the compound `COc1ccc(N2CCN(CCC3OCCc4ccc(C(N)=O)cc43)CC2)cc1` (configuration not stated), the melting point lay in the range of 178 to 180 °C.

Regarding `CC(=O)OC1Oc2ccc(Br)cc2C1(C)C` (configuration not stated), the melting point lay within 73 to 80 °C.

Regarding `COc1ccc(N2Cc3nc(C(=O)O)nn3-c3cccnc32)cc1`, the melting point was in the range of 190 to 196 °C.

`COc1ccc(-c2nnn(-c3ccc(C(F)(F)F)cc3F)c2Cl)c(Cl)c1` came in with a melting point of 95.8 to 97.5 °C.

In turn, `C=CCS(=O)(=O)c1ccc(NN=C(C)C)cc1` came in with a melting point of 105 to 108 °C.
